Like-named read-outs stand apart in the source and are kept apart here.
Legend:
[1] = system: CBW (cotton bollworm) ova; experiment: Topical treatment of CBW eggs (ova); type: in vivo, Heliothis zea; conditions: 144 h, 6 days
Description: (§1) Each test compound was formulated by dissolving the compound in an acetone/alcohol (1:1) mixture containing 23 g of "Toximul R" (sulfonate/nonionic emulsifier blend) and 13 g of "Toximul S" (sulfonate/nonionic emulsifier blend) per liter. These mixtures were then diluted with water to give the indicated concentrations.
(§2) Additional insects were evaluated using similar formulations and evaluation procedures, with the exceptions noted.
After standard exposure periods, percent mortality was evaluated. The following abbreviations are used:
^b Mean of two replicates tested
^e Eggs topically treated with A83543A and held until control eggs

CLH (corn leafhopper) = experiment: Greenhouse test against CLH; type: in vivo, Dalbulus maidis
Description: as §1, §2
After standard exposure periods, percent mortality was evaluated.

[2] = system: first instar yellow fever mosquito larvae; experiment: In vitro mosquito larvicide test, first instar; conditions: Aedes aegypti, 24 h, lowest concentration with 100% inhibition after 24 hr, microtiter plates, read-out: Minimal Inhibitory Concentration
Excerpt: The A83543 components were active against yellow fever mosquito (Aedes aegypti) larvae in standard in vitro mosquito larvicide tests.

blow fly larvae (LBF) = experiment: Sheep systemic test, blow fly larvae; type: in vivo
Description: (§3) Blood is drawn from the guinea pigs at 30 minutes except as noted, and the samples of blood are centrifuged. Dental wicks are saturated with the blood serum, and then exposed in Petri dishes to adult stable flies; blow fly larvae are exposed in test tubes. After 24 and 48 hours, the insects are examined, and the number of dead are counted. The results of the tests are recorded as the percent of the insects which are killed.
(§4) Tests are carried out in sheep using the test method described supra in the Guinea Pig Test description. Test compound is administered by intraperitoneal or intravenous injection or intraruminally; blood samples are drawn at 24 hours in these tests.

adult stable fly (ASF) = experiment: Sheep systemic test, adult stable fly; type: in vivo; conditions: Stomoxys calcitrans, 24 h
Description: as §3, §4

sheep = experiment: Toxicity to the host animal, sheep systemic test; type: in vivo; design: key: N: none
Description: as §4

larval blow fly = experiment: Insecticidal assay in blood of sheep challenged with Haemonchus contortus, larval blow fly; type: in vivo
Description: as §3
Tests are carried out in sheep using the test method described supra in the Guinea Pig Test description. […]
^b Amount (mg/kg) times number of doses administered
^c Times postadministration at which blood is drawn

[3] = Anthelmintic activity in sheep; type: in vivo

CC[C@H]1CCC[C@H](O[C@H]2CC[C@H](N(C)C)[C@@H](C)O2)[C@@H](C)C(=O)C2=C[C@@H]3[C@@H](C=C[C@@H]4C[C@@H](O[C@@H]5O[C@@H](C)[C@H](OC)[C@@H](OC)[C@H]5OC)C[C@@H]34)[C@@H]2CC(=O)O1 [A83543A]
80%: LBF activity (% mortality) (blow fly larvae (LBF); 30 mg/kg IP, 1440 min) | Percent Insecticide Mortality (larval blow fly; 50 × 1 mg/kg IR, Day 3, L, 24-hour exposure, 4320 min)
40%: Percent Insecticide Mortality (larval blow fly; 50 × 1 mg/kg IR, 5 hr, L, 24-hour exposure) | Percent Insecticide Mortality (larval blow fly; 50 × 1 mg/kg IR, Day 4, L, 24-hour exposure, 5760 min) | Percent Insecticide Mortality (larval blow fly; 50 × 1 mg/kg IR, Day 4, L, 48-hour exposure)
20%: LBF activity (% mortality) (blow fly larvae (LBF); 50 mg/kg IP, 1440 min) | Percent Insecticide Mortality (larval blow fly; 50 × 1 mg/kg IP, Day 2, L, 24-hour exposure, 2880 min) | Percent Insecticide Mortality (larval blow fly; 50 × 1 mg/kg IP, Day 2, L, 48-hour exposure) | Percent Insecticide Mortality (larval blow fly; 50 × 1 mg/kg IP, Day 3, L, 24-hour exposure, 4320 min) | Percent Insecticide Mortality (larval blow fly; 50 × 1 mg/kg IP, Day 3, L, 48-hour exposure) | Percent Insecticide Mortality (larval blow fly; 50 × 1 mg/kg IP, Day 4, L, 48-hour exposure) | Percent Insecticide Mortality (larval blow fly; 50 × 1 mg/kg IR, Day 5, L, 24-hour exposure, 7200 min)
70%: mortality at 50 mg/kg (adult stable fly (ASF); 50 mg/kg IR)
10%: mortality at 1 mg/kg (adult stable fly (ASF); 1.0 mg/kg IV) | Percent Insecticide Mortality (larval blow fly; 1 × 1 mg/kg IV, 5 hr, L, 24-hour exposure) | Percent Insecticide Mortality (larval blow fly; 1 × 1 mg/kg IV, 5 hr, L, 48-hour exposure) | Percent Insecticide Mortality (larval blow fly; 50 × 1 mg/kg IP, 35 min, L, 48-hour exposure) | Percent Insecticide Mortality (larval blow fly; 50 × 1 mg/kg IP, 5 hr, L, 24-hour exposure) | Percent Insecticide Mortality (larval blow fly; 50 × 1 mg/kg IP, 5 hr, L, 48-hour exposure) | Percent Insecticide Mortality (larval blow fly; 50 × 1 mg/kg IP, Day 1, L, 24-hour exposure) | Percent Insecticide Mortality (larval blow fly; 50 × 1 mg/kg IP, Day 1, L, 48-hour exposure) | Percent Insecticide Mortality (larval blow fly; 50 × 1 mg/kg IP, Day 4, L, 24-hour exposure, 5760 min) | Percent Insecticide Mortality (larval blow fly; 50 × 1 mg/kg IP, Day 5, L, 24-hour exposure, 7200 min)
0.016 µg/mL: MIC [2]
25%: LBF activity (% mortality) (blow fly larvae (LBF); 1.0 mg/kg IV) | Percent Insecticide Mortality (larval blow fly; 1 × 1 mg/kg IV, 35 min, L, 24-hour exposure) | Percent Insecticide Mortality (larval blow fly; 1 × 1 mg/kg IV, 35 min, L, 48-hour exposure) | Percent Insecticide Mortality (larval blow fly; 25 × 2 mg/kg IR, 5 hr, L, 24-hour exposure) | Percent Insecticide Mortality (larval blow fly; 50 × 1 mg/kg IP, Day 5, L, 48-hour exposure) | Percent Insecticide Mortality (larval blow fly; 50 × 1 mg/kg IR, Day 5, L, 48-hour exposure)
0%: inhibition at 10 ppm ([1]; 10.00 ppm) | inhibition at 50 ppm ([1]; 50.00 ppm) | inhibition at 50 ppm (CLH (corn leafhopper); 50 ppm) | LBF activity (% mortality) (blow fly larvae (LBF); 10 mg/kg IP, 1440 min) | LBF activity (% mortality) (blow fly larvae (LBF); 10 mg/kg IR, 1440 min) | mortality at 10 mg/kg (adult stable fly (ASF); 10 mg/kg IP) | mortality at 10 mg/kg (adult stable fly (ASF); 10 mg/kg IR) | mortality at 30 mg/kg (adult stable fly (ASF); 30 mg/kg IP) | Percent Insecticide Mortality (larval blow fly; 1 × 1 mg/kg IV, Day 0, L, 24-hour exposure) | Percent Insecticide Mortality (larval blow fly; 1 × 1 mg/kg IV, Day 0, L, 48-hour exposure) | Percent Insecticide Mortality (larval blow fly; 1 × 1 mg/kg IV, Day 1, L, 24-hour exposure) | Percent Insecticide Mortality (larval blow fly; 1 × 1 mg/kg IV, Day 1, L, 48-hour exposure) | Percent Insecticide Mortality (larval blow fly; 1 × 1 mg/kg IV, Day 2, L, 24-hour exposure) | Percent Insecticide Mortality (larval blow fly; 1 × 1 mg/kg IV, Day 2, L, 48-hour exposure) | Percent Insecticide Mortality (larval blow fly; 1 × 1 mg/kg IV, Day 3, L, 24-hour exposure) | Percent Insecticide Mortality (larval blow fly; 1 × 1 mg/kg IV, Day 3, L, 48-hour exposure) | Percent Insecticide Mortality (larval blow fly; 1 × 1 mg/kg IV, Day 4, L, 24-hour exposure) | Percent Insecticide Mortality (larval blow fly; 1 × 1 mg/kg IV, Day 4, L, 48-hour exposure) | Percent Insecticide Mortality (larval blow fly; 1 × 1 mg/kg IV, Day 5, L, 24-hour exposure) | Percent Insecticide Mortality (larval blow fly; 1 × 1 mg/kg IV, Day 5, L, 48-hour exposure) | Percent Insecticide Mortality (larval blow fly; 25 × 2 mg/kg IR, 35 min, L, 24-hour exposure) | Percent Insecticide Mortality (larval blow fly; 25 × 2 mg/kg IR, 35 min, L, 48-hour exposure) | Percent Insecticide Mortality (larval blow fly; 25 × 2 mg/kg IR, Day 0, L, 24-hour exposure, 0 min) | Percent Insecticide Mortality (larval blow fly; 25 × 2 mg/kg IR, Day 0, L, 48-hour exposure) | Percent Insecticide Mortality (larval blow fly; 50 × 1 mg/kg IP, 35 min, L, 24-hour exposure) | Percent Insecticide Mortality (larval blow fly; 50 × 1 mg/kg IP, Day 0, L, 24-hour exposure, 0 min) | Percent Insecticide Mortality (larval blow fly; 50 × 1 mg/kg IP, Day 0, L, 48-hour exposure) | Percent Insecticide Mortality (larval blow fly; 50 × 1 mg/kg IR, 35 min, L, 24-hour exposure) | Percent Insecticide Mortality (larval blow fly; 50 × 1 mg/kg IR, 35 min, L, 48-hour exposure) | Percent Insecticide Mortality (larval blow fly; 50 × 1 mg/kg IR, Day 0, L, 24-hour exposure, 0 min) | Percent Insecticide Mortality (larval blow fly; 50 × 1 mg/kg IR, Day 0, L, 48-hour exposure)
75%: Percent Insecticide Mortality (larval blow fly; 25 × 2 mg/kg IR, Day 5, L, 48-hour exposure) | Percent Insecticide Mortality (larval blow fly; 50 × 1 mg/kg IR, 5 hr, L, 48-hour exposure)
N: Tox (sheep; 1.0 mg/kg IV) | Tox (sheep; 10 mg/kg IP) | Tox (sheep; 10 mg/kg IR) | Tox (sheep; 30 mg/kg IP) | Tox (sheep; 30 mg/kg IR) | Tox (sheep; 50 mg/kg IP) | Tox (sheep; 50 mg/kg IR) | Tox (sheep; 2 × 25 mg/kg IR)
50%: Percent Insecticide Mortality (larval blow fly; 25 × 2 mg/kg IR, 5 hr, L, 48-hour exposure) | Percent Insecticide Mortality (larval blow fly; 25 × 2 mg/kg IR, Day 5, L, 24-hour exposure)
60%: Percent Insecticide Mortality (larval blow fly; 25 × 2 mg/kg IR, Day 4, L, 24-hour exposure)
0.031 µg/mL: MIC ([2]; second of two lots)
100%: LBF activity (% mortality) (blow fly larvae (LBF); 30 mg/kg IR, 1440 min) | LBF activity (% mortality) (blow fly larvae (LBF); 50 mg/kg IR, 1440 min) | LBF activity (% mortality) (blow fly larvae (LBF); 2 × 25 mg/kg IR, 1440 min) | Percent Insecticide Mortality (larval blow fly; 25 × 2 mg/kg IR, Day 1, L, 24-hour exposure) | Percent Insecticide Mortality (larval blow fly; 25 × 2 mg/kg IR, Day 1, L, 48-hour exposure) | Percent Insecticide Mortality (larval blow fly; 25 × 2 mg/kg IR, Day 2, L, 48-hour exposure) | Percent Insecticide Mortality (larval blow fly; 25 × 2 mg/kg IR, Day 3, L, 48-hour exposure) | Percent Insecticide Mortality (larval blow fly; 50 × 1 mg/kg IR, Day 1, L, 48-hour exposure) | Percent Insecticide Mortality (larval blow fly; 50 × 1 mg/kg IR, Day 2, L, 48-hour exposure) | Percent Insecticide Mortality (larval blow fly; 50 × 1 mg/kg IR, Day 3, L, 48-hour exposure)
90%: inhibition at 200 ppm (CLH (corn leafhopper); 200 ppm) | mortality at 25 mg/kg (adult stable fly (ASF); 2 × 25 mg/kg IR) | Percent Insecticide Mortality (larval blow fly; 25 × 2 mg/kg IR, Day 2, L, 24-hour exposure) | Percent Insecticide Mortality (larval blow fly; 25 × 2 mg/kg IR, Day 3, L, 24-hour exposure) | Percent Insecticide Mortality (larval blow fly; 25 × 2 mg/kg IR, Day 4, L, 48-hour exposure) | Percent Insecticide Mortality (larval blow fly; 50 × 1 mg/kg IR, Day 1, L, 24-hour exposure) | Percent Insecticide Mortality (larval blow fly; 50 × 1 mg/kg IR, Day 2, L, 24-hour exposure, 2880 min)
30%: inhibition at 100 ppm ([1]; 100.00 ppm) | inhibition at 100 ppm (CLH (corn leafhopper); 100 ppm) | mortality at 30 mg/kg (adult stable fly (ASF); 30 mg/kg IR)
did not show anthelmintic activity: anthelmintic activity ([3]; single intraperitoneal dose of 50 mg/kg) | anthelmintic activity ([3]; single intraruminal dose of 50 mg/kg)

— patent publication US5362634A, “Process for producing A83543 compounds” (DowElanco, priority 1991, dated 1994)
